Experimental data as given in patent US8987267B2, “2-substituted-8-alkyl-7-OXO-7,8-dihydropyrido[2,3-D]pyrimidine-6-carbonitriles and uses thereof in treating proliferative disorders” (Temple University—of the Commonwealth System of Higher …, priority 2010, dated 2015).

Columns and labels:
Assay in all cases: Kinase inhibition panel
Type in all cases: biochemical
Settings in all cases: 10 μM ATP
LYN = LYN (Homo sapiens, UniProt P07948)
NLK = NLK (Homo sapiens, UniProt Q9UBE8)
ZAK/MLTK = ZAK/MLTK (Homo sapiens, UniProt Q9NYL2)
PDGFRb = PDGFRb (Homo sapiens, UniProt P09619)
FLT3 = FLT3 (Homo sapiens, UniProt P36888)
FYN = FYN (Homo sapiens, UniProt P06241)
c-Kit = c-Kit (Homo sapiens, UniProt P10721)
CDK6/cyclinD3 = CDK6/cyclinD3 (Homo sapiens, UniProt Q00534)
TTK = TTK (Homo sapiens, UniProt P33981)
CDK7/cyclinH/MNAT1 = CDK7/cyclinH/MNAT1 (Homo sapiens, UniProt P50613)
EPHA2 = EPHA2 (Homo sapiens, UniProt P29317)
FLT4NEGFR3 = FLT4NEGFR3 (Homo sapiens, UniProt P35916)
LOK/STK10 = LOK/STK10 (Homo sapiens, UniProt O94804)
Description: (§1) The compounds in Table 4 were tested for the ability to inhibit the kinase activity of the listed protein kinases.

LCK = LCK (Homo sapiens, UniProt P06239)
Description: as §1

CDK6/cyclinD1 = CDK6/cyclinD1 (Homo sapiens, UniProt Q00534)
Description: as §1

TAOK2ITA01 = TAOK2ITA01 (Homo sapiens, UniProt Q9UL54)
Description: as §1

ABL1 = ABL1 (Homo sapiens, UniProt P00519)
Description: as §1

CDK2/cyclinE = CDK2/cyclinE (Homo sapiens, UniProt P24941)
Description: as §1

FGFR1 = FGFR1 (Homo sapiens, UniProt P11362)
Description: as §1

CDK3/cyclinE = CDK3/cyclinE (Homo sapiens, UniProt Q00526)
Description: as §1

FMS = FMS (Homo sapiens, UniProt P07333)
Description: as §1

SIK2/SNF1LK2 = SIK2/SNF1LK2 (Homo sapiens, UniProt Q9H0K1)
Description: as §1

FGFR3 = FGFR3 (Homo sapiens, UniProt P22607)
Description: as §1

CDK5/p35 = CDK5/p35 (Homo sapiens, UniProt Q00535)
Description: as §1

LYNB = LYNB (Homo sapiens, UniProt P07948)
Description: as §1

SNARK/NUAK2 = SNARK/NUAK2 (Homo sapiens, UniProt Q9H093)
Description: as §1

RIPK2 = RIPK2 (Homo sapiens, UniProt O43353)
Description: as §1

CDK5/p25 = CDK5/p25 (Homo sapiens, UniProt Q00535)
Description: as §1

CDK2/cyclinA = CDK2/cyclinA (Homo sapiens, UniProt P24941)
Description: as §1

ABL2/ARG = ABL2/ARG (Homo sapiens, UniProt P42684)
Description: as §1

EphB4 = EphB4 (Homo sapiens, UniProt P54760)
Description: as §1

FLTINEGFRI = FLTINEGFRI (Homo sapiens, UniProt P17948)
Description: as §1

PAK3 = PAK3 (Homo sapiens, UniProt O75914)
Description: as §1

EphB1 = EphB1 (Homo sapiens, UniProt P54762)
Description: as §1

CDK9/cyclin K = CDK9/cyclin K (Homo sapiens, UniProt P50750)
Description: as §1

EPHA1 = EPHA1 (Homo sapiens, UniProt P21709)
Description: as §1

c-Src = c-Src (Homo sapiens, UniProt P12931)
Description: as §1

LIMK1 = LIMK1 (Homo sapiens, UniProt P53667)
Description: as §1

CDK4/Cyclin D1 = CDK4/Cyclin D1 (Homo sapiens, UniProt P11802)
Description: as §1

TGFbR2 = TGFbR2 (Homo sapiens, UniProt P37173)
Description: as §1

FGFR4 = FGFR4 (Homo sapiens, UniProt P22455)
PKCmu = PKCmu (Homo sapiens, UniProt Q15139)
CDK4/Cyclin D3 = CDK4/Cyclin D3 (Homo sapiens, UniProt P11802)

Sequence of ZAK/MLTK (Q9NYL2 whole entry): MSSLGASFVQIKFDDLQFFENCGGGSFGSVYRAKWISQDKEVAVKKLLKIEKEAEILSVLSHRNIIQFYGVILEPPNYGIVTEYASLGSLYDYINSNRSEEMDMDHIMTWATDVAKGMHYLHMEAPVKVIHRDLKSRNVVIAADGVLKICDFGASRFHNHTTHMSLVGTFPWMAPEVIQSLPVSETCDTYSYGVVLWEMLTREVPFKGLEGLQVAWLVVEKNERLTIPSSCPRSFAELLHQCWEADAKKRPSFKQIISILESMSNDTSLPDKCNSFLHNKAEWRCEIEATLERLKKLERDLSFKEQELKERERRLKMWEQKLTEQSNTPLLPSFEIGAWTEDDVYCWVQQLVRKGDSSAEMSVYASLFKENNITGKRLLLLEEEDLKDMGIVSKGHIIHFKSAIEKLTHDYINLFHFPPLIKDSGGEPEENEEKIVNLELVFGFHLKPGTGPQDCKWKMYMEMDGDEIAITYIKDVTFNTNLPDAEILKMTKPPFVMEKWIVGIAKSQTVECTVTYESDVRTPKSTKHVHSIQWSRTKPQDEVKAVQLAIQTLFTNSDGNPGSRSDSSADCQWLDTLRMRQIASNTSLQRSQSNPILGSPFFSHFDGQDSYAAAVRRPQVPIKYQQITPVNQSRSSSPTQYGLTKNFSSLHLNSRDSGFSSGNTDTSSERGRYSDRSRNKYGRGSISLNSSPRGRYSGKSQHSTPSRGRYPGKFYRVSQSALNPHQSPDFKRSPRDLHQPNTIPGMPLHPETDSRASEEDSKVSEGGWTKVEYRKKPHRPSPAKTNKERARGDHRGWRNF
Sequence of FLT4NEGFR3 (P35916 25-1363): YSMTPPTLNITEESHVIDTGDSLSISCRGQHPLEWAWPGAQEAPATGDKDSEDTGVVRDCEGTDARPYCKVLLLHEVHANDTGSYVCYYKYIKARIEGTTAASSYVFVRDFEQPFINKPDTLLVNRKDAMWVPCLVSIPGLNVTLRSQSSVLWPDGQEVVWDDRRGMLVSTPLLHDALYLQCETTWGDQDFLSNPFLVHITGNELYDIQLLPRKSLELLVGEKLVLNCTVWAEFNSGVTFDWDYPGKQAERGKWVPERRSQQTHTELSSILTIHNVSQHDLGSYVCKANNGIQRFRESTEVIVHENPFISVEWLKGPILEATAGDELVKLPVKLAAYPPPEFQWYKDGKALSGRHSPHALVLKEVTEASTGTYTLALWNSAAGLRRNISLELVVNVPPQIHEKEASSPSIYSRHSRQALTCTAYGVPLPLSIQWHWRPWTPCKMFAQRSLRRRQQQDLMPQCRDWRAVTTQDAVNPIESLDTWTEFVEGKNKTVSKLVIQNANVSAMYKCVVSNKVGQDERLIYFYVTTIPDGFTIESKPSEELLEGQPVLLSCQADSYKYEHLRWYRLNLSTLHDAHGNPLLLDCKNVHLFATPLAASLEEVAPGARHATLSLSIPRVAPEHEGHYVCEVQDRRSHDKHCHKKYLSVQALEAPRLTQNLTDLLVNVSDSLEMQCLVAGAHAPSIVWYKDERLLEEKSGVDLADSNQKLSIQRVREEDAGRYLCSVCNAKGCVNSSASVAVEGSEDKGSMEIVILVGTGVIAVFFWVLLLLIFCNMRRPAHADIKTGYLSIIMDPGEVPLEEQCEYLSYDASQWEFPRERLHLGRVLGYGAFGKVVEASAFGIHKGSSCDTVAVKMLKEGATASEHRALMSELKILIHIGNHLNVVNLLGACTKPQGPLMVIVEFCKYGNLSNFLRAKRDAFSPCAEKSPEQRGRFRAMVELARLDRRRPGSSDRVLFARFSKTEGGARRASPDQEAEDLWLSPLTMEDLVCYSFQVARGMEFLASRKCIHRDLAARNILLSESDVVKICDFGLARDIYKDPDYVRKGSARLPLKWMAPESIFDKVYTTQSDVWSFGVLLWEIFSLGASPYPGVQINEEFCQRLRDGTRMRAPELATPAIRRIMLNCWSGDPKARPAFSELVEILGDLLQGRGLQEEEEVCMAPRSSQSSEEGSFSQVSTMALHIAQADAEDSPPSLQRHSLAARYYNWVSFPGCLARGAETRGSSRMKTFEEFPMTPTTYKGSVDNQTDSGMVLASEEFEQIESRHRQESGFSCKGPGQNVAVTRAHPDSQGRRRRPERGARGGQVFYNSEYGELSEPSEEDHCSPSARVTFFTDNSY
Sequence of LYNB (P07948 1-491 isoform P07948-2, species assumed): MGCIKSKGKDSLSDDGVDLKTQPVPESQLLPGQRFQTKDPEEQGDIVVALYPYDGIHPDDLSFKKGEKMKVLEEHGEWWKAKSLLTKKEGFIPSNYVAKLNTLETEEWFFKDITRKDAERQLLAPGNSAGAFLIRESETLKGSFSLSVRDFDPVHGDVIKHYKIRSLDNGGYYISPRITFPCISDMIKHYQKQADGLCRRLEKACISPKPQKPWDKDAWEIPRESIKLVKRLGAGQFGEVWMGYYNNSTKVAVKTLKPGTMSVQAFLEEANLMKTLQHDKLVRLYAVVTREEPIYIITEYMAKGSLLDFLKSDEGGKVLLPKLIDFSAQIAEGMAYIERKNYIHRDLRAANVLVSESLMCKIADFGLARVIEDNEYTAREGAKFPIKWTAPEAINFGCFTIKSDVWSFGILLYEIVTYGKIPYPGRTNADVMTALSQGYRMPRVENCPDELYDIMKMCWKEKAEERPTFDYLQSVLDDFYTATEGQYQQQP
Sequence of SIK2/SNF1LK2 (Q9H0K1 whole entry): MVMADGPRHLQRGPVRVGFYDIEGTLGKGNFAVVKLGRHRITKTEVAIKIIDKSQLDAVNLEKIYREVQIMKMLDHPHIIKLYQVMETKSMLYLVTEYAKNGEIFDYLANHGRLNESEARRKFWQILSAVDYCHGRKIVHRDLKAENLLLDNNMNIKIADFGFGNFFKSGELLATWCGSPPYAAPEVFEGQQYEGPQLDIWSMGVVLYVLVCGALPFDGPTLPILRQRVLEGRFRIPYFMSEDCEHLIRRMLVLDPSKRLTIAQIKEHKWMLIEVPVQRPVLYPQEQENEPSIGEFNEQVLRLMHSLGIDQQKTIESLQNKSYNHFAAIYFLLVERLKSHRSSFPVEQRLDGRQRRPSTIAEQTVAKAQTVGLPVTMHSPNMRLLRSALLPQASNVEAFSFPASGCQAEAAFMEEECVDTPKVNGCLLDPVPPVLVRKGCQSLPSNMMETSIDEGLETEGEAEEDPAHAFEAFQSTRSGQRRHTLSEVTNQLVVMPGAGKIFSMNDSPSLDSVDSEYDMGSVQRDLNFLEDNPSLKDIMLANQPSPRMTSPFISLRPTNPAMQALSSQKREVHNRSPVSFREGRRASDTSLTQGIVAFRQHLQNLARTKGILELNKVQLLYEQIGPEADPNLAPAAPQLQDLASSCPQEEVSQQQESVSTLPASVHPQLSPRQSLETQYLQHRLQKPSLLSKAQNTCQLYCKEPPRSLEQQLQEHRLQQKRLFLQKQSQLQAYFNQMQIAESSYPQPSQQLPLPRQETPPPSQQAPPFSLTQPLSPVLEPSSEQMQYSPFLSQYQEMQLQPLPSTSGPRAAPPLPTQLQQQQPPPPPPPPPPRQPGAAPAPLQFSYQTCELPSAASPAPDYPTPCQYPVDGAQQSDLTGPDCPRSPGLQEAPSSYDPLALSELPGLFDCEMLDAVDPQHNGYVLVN
Sequence of TGFbR2 (P37173 23-567, species assumed): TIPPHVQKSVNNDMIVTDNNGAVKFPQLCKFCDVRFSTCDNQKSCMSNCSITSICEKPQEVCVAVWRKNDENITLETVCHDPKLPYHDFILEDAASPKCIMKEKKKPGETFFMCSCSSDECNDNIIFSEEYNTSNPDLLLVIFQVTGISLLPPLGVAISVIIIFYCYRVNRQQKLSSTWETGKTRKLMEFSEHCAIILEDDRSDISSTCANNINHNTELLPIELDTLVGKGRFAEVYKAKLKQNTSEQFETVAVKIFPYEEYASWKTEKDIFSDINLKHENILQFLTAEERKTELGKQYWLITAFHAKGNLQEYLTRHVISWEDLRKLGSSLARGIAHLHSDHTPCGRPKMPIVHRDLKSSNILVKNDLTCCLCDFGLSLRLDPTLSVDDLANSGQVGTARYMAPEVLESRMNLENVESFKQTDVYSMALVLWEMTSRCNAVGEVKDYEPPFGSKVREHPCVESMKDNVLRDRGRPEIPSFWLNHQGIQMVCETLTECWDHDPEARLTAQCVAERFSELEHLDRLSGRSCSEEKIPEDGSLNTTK
Sequence of FGFR4 (P22455 22-802, species assumed): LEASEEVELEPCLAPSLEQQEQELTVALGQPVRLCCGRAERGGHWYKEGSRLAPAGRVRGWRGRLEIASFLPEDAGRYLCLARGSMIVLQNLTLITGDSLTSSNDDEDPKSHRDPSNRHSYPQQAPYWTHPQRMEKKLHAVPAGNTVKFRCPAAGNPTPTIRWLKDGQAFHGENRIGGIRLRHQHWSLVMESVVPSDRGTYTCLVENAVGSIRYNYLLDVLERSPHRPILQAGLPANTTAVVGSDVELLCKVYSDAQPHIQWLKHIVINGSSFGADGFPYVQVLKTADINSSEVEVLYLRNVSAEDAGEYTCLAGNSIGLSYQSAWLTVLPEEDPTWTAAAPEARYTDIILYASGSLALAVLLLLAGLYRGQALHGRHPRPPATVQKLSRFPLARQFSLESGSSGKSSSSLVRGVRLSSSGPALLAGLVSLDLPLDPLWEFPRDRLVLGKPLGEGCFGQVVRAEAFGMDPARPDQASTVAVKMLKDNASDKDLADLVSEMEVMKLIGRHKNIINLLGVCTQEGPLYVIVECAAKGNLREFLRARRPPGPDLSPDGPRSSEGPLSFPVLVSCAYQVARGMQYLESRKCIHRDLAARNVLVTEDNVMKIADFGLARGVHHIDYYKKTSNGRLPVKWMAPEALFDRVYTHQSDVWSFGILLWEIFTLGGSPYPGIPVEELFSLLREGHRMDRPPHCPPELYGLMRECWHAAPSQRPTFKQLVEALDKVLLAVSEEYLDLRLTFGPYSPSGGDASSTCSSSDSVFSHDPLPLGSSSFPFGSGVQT

CN1CCN(c2ccc(Nc3ncc4cc(C#N)c(=O)n(C5CCCC5)c4n3)cc2)CC1 [Compound 12, 8-cyclopentyl-2-((4-(4-methylpiperazin-1-yl)phenyl)amino)-7-oxo-7,8-dihydropyrido[2,3-d]pyrimidine-6-carbonitrile]
IC50 (LYN): 0.0685 µM | IC50 (NLK): 0.0453 µM | IC50 (ZAK/MLTK): 0.0295 µM | IC50 (PDGFRb): 0.00264 µM | IC50 (FLT3): 0.0136 µM | IC50 (FYN): 0.0266 µM | IC50 (c-Kit): 0.408 µM | IC50 (CDK6/cyclinD3): 0.0387 µM | IC50 (TTK): 0.156 µM | IC50 (CDK7/cyclinH/MNAT1): > 10 µM | IC50 (EPHA2): 0.114 µM | IC50 (FLT4NEGFR3): 0.0635 µM | IC50 (LOK/STK10): 0.181 µM | IC50 (LCK): 0.0504 µM | IC50 (CDK6/cyclinD1): 0.0184 µM | IC50 (TAOK2ITA01): 0.0696 µM | IC50 (ABL1): 0.0756 µM | IC50 (CDK2/cyclinE): 0.77 µM | IC50 (FGFR1): 0.0682 µM | IC50 (CDK3/cyclinE): 3.22 µM | IC50 (FMS): 0.00146 µM | IC50 (SIK2/SNF1LK2): 0.0968 µM | IC50 (FGFR3): 0.124 µM | IC50 (CDK5/p35): 0.181 µM | IC50 (LYNB): 6.65 µM | IC50 (SNARK/NUAK2): 0.0207 µM | IC50 (RIPK2): 0.0408 µM | IC50 (CDK5/p25): 0.264 µM | IC50 (CDK2/cyclinA): 0.0973 µM | IC50 (ABL2/ARG): 0.0916 µM | IC50 (EphB4): 0.12 µM | IC50 (FLTINEGFRI): 0.0941 µM | IC50 (PAK3): 1.93 µM | IC50 (EphB1): 0.0267 µM | IC50 (CDK9/cyclin K): 0.0271 µM | IC50 (EPHA1): 0.0371 µM | IC50 (c-Src): 0.093 µM | IC50 (LIMK1): 0.0708 µM | IC50 (CDK4/Cyclin D1): 0.004 µM | IC50 (TGFbR2): 0.0623 µM | IC50 (FGFR4): 3.55 µM | IC50 (PKCmu): 0.142 µM | IC50 (CDK4/Cyclin D3): 0.0212 µM
